Experimental data published in US12409206B2, “Use of cyclosporine analogues for treating fibrosis” (Hepion Pharmaceuticals, Inc., priority 2020, dated 2025).

Experiments:
Format in all cases: cell-based
[1] = test system: Human renal mesangial cells; experiment: Procollagen and fibronectin ELISA of spent medium, renal mesangial cell culture; conditions: medium from Day 2-4 of treatment, both in the absence or presence of 0.4 ng/ml TGFβ
Protocol: Human renal mesangial cells (ScienCell, Cat. #4200 (SC)) were cultured in 96-well plates. Treatments were applied in triplicate wells (applied 100 ul treatments per well) for 2 days, then re-applied for an additional 2 days. Cells were near confluence at the start of treatments. […] Spent culture medium collected from Day 2-4 of treatment was assayed for procollagen and fibronectin by enzyme-linked immunosorbent assays (ELISA) (Procollagen ELISA antibody pair (ab216064) and fibronectin ELISA antibody pair (ab222262) from Abcam). Procollagen and fibronectin were not detected in medium not applied to cells. Procollagen and fibronectin levels in the medium are represented by means±SD (bars) from 3 replicate wells (open circles).

[2] = test system: human precision cut IPF lung slices; experiment: Gene expression (RT-PCR) in precision cut IPF lung slices in culture; conditions: CRV431 applied at 5 μM; Day 6 of culture after 4 days of treatment; β actin reference
Protocol: This example describes a study conducted with precision cut lung slices. Precision cut slices from explanted lung tissue from a patient with biopsy-confirmed, idiopathic pulmonary fibrosis (IPF) were cultured for 6 days. Treatments were applied to 6 replicate slices per treatment on Day 2 of culture and replaced daily on Days 3, 4, and 5 of culture.
For generating the results of gene expression shown in FIG. 6B, RNA was isolated from 6 pooled lung slices per treatment on Day 6 of culture following 4 days of drug or vehicle treatment and evaluated by reverse transcription-polymerase chain reaction (RT-PCR) for 6 markers of inflammation and fibrosis: MCP-1, IL-6, TGFβ TIMP1, collagen 1α1, and α-smooth muscle actin (αSMA). β actin was used as a reference gene to calculate relative levels of each target gene RNA.

[3] = test system: human precision cut liver slices (PCLS); experiment: PCLS Sirius red tissue fibrosis, Nonstimulation Protocol; conditions: 6 days of culture in the absence of exogenous TGFβ+PDGF-BB; most CRV431-treated slices
Protocol: (§1) PCLS were obtained from 5 human donors who underwent resection of liver cancer. Replicate slices were collected from healthy margins of the resections and cultured for 4 or 6 days depending on the experimental protocol. In the Nonstimulation Protocol slices were cultured for 6 days and treated for the entire period with DMSO vehicle or 5 μM CRV431. In the Stimulation Protocol slices were rested for 1 day and then administered the cytokines, TGFβ and PDGF-BB, for 3 days to stimulate inflammation and fibrosis. […]
(§2) Four types of evaluations were conducted on the PCLS: (a) secretion of inflammation and fibrosis biomarkers into the culture medium, (b) histological staining and quantitation of Sirius red as a measure of tissue fibrosis, (c) gene expression of inflammation and fibrosis biomarkers by RT-PCR, and (d) RNA sequencing (RNA-Seq) of the complete transcriptome. […] ELISAs were used to quantify secretion of monocyte chemoattractant protein (MCP-1), interleukin-6 (IL-6), tissue inhibitor of metalloproteinase-1 (TIMP1), hyaluronic acid, fibronectin, and collagen 1α1. For each donor the mean level of biomarker secretion in each treatment group was expressed as a percentage change relative to DMSO vehicle, the percentages averaged for all donors, and finally the mean daily percentage change calculated from all days of evaluation. […]

[4] = test system: human precision cut liver slices (PCLS); experiment: PCLS biomarker secretion (ELISA)
Protocol: PCLS were obtained from 5 human donors who underwent resection of liver cancer. Replicate slices were collected from healthy margins of the resections and cultured for 4 or 6 days depending on the experimental protocol. In the Nonstimulation Protocol slices were cultured for 6 days and treated for the entire period with DMSO vehicle or 5 μM CRV431. In the Stimulation Protocol slices were rested for 1 day and then administered the cytokines, TGFβ and PDGF-BB, for 3 days to stimulate inflammation and fibrosis. DMSO vehicle, CRV431 (1 and 5 μM), Alk5i (10 μM), obeticholic acid (5 μM), elafibranor (5 μM), resmetirom ([…]), and Aramchol (5 μM) were administered individually as drug treatments in the Stimulation Protocol concurrent with TGFβ+PDGF-BB. Culture medium treatments were replaced daily.
Four types of evaluations were conducted on the PCLS: (a) secretion of inflammation and fibrosis biomarkers into the culture medium, (b) histological staining and quantitation of Sirius red as a measure of tissue fibrosis, (c) gene expression of inflammation and fibrosis biomarkers by RT-PCR, and (d) RNA sequencing (RNA-Seq) of the complete transcriptome. Each of the four types of evaluation is described below: • (a) Biomarker secretion. Spent culture medium was collected daily from duplicate slices for each treatment. ELISAs were used to quantify secretion of monocyte chemoattractant protein (MCP-1), interleukin-6 (IL-6), tissue inhibitor of metalloproteinase-1 (TIMP1), hyaluronic acid, fibronectin, and collagen 1α1. For each donor the mean level of biomarker secretion in each treatment group was expressed as a percentage change relative to DMSO vehicle, the percentages averaged for all donors, and finally the mean daily percentage change calculated from all days of evaluation. […] Sirius red was quantified morphometrically in the histological sections as the percentage area with Sirius red staining in 10 sections from each treatment. In the Nonstimulation Protocol the quantity of Sirius red staining was expressed relative to the vehicle group. In the Stimulation Protocol the quantity of Sirius red staining was expressed relative to nonstimulated PCLS (0%) and TGFβ+PDGF-BB-stimulated+vehicle PCLS (100%). […] RNA was isolated from duplicate liver slices per treatment at the end of the experiments and evaluated by RT-PCR for 5 markers of inflammation and fibrosis: MCP-1, IL-6, TIMP1, αSMA, and collagen 1α1. β actin was used as a reference gene to calculate relative levels of each target gene RNA. […] RNA sequencing of the complete transcriptome (30 million reads per sample) was conducted on vehicle and 5 μM CRV431 treatment groups from 3 donors both from the Nonstimulation and Stimulation Protocols. […]

[5] = test system: human precision cut liver slices (PCLS); experiment: PCLS RNA-Seq, general statements (protocol not stated)
Protocol: as §1, §2

With `CC[C@@H]1NC(=O)[C@H]([C@H](O)[C@H](C)CCCCCCNC(C)=O)N(C)C(=O)[C@H](C(C)C)N(C)C(=O)[C@H](CC(C)C)N(C)C(=O)[C@H](CC(C)C)N(C)C(=O)[C@@H](C)NC(=O)[C@H](C)NC(=O)[C@H](CC(C)C)N(C)C(=O)[C@H](C(C)C)NC(=O)[C@H](CC(C)C)N(C)C(=O)[C@@H](C)N(C)C1=O` [CRV431] the “abundance of fibronectin in the medium” value [1] was “dose-dependently decreased”, the “abundance of procollagen in the medium” value [1] was “dose-dependently decreased” and the “gene expression of all markers (MCP-1, IL-6, TGFβ, TIMP1, collagen 1α1, αSMA)” value [2] was “decreased”. The “tissue fibrosis vs vehicle-treated slices” value [3] was “less fibrosis than vehicle-treated slices”, the “mean daily secretion of all markers” value ([4]; CRV431 applied at 5 μM, markers MCP-1, IL-6, TIMP1, hyaluronic acid, fibronectin, collagen 1α1) was “decreased” and the “secretion of collagen1α1, fibronectin, hyaluronic acid, IL-6, and MCP-1” value ([4]; ELISA) was “reduced secretion”. The “expression of many fibrosis-related genes (more than 10 collagen genes, collagen hydroxylases and oxidases, ACTA2, VEGF, TIMPs)” value [5] was “decreased expression”.
